Source: PMC4287973, “Tumor cell-specific inhibition of MYC function using small molecule inhibitors of the HUWE1 ubiquitin ligase” (EMBO Molecular Medicine, 2014)

Columns and labels:
[1] = test system: Ls174T cells; assay: Colony formation assay of Ls174T cells; assay type: cell-based; conditions: Homo sapiens, 120 h, stained after 5 days, read-out: estimated IC50 colony formation
Experimental: Partial shRNA-mediated depletion of HUWE1 led to a moderate, but highly significant reduction in IC50 value for growth inhibition by BI8622, arguing that growth inhibition is an on-target effect of the inhibitor (Supplementary Fig S6). […] Incubation with either compound retarded passage of Ls174T cells through all phases of the cell cycle, with the effect being strongest for G1. In contrast to colon carcinoma cells, HUWE1 is not required for proliferation of embryonic stem (ES) cells and deletion of HUWE1 instead delays the decrease of N-MYC levels that occurs upon removal of leukemia inhibitory factor (LIF) from the medium (Zhao et al, [2008]). […]
Figure 4 Effect of HUWE1 inhibition on growth and gene expression in epithelial and embryonic stem cells • Colony formation assays documenting growth of Ls174T cells in the presence of the indicated concentrations of HUWE1 inhibitors. […] A quantitation of N-MYC protein levels relative to Vinculin is shown below the blot (n = 3). • RQ–PCR assays documenting expression of MYC target gene expression in murine ES cells (F) and in crypt cultures of normal intestinal epithelial cells (G) upon inhibition of HUWE1. […]
HCT116, HEK293T, HeLa, HT29, ES, Phoenix, and U2OS cells were cultivated in DMEM (Sigma). […] Quantification of crystal violet staining was performed by extracting dye with 10% acetic acid and measuring absorbance at 590 nm. […]

[2] = target: T1, HERC1 (Homo sapiens, UniProt Q15751); assay: in vitro HECT-domain auto-ubiquitination assay, HERC1; assay type: biochemical
T1 construct: HECT-domains of multiple ligases auto-ubiquitinate in in vitro assays containing both UBA1 and UbcH5b
T1 sequence (Q15751 4501-4848 limits assumed): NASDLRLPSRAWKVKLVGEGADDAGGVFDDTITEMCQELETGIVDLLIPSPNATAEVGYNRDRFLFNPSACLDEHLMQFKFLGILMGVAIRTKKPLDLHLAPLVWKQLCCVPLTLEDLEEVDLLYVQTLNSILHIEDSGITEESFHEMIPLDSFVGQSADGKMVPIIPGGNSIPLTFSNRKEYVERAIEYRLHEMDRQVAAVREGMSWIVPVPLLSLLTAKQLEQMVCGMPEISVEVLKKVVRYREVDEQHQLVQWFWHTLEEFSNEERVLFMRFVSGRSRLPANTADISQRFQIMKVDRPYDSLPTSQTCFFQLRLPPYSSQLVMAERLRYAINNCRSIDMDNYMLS

| Compound | IC50 [1] [µM] | IC50 [2] [µM] |
| --- | --- | --- |
| Cc1c(C(=O)Nc2ccc(CN)cc2)ncnc1N1CCC(C#N)(c2ccccc2)CC1 [BI8622] | 8.4 | > 50 |
| NCc1cccc(CNc2ncnc3c(N4CCN(Cc5ccccc5)CC4)ncnc23)c1 [BI8626] | 0.7 | > 50 |
